From the NIST ThermoML archive (doi:10.1021/je700287u)
Numbers after ± are expanded uncertainties.

Details: Liquid

CN(CCO)CCO [N-methyldiethanolamine]
mass density (313.09 K, 1007 kPa): 1025.3 ± 0.6 kg/m3 | mass density (313.09 K, 1989 kPa): 1025.8 ± 0.6 kg/m3 | mass density (313.09 K, 3027 kPa): 1026.4 ± 0.6 kg/m3 | mass density (313.09 K, 4003 kPa): 1026.9 ± 0.6 kg/m3 | mass density (313.09 K, 5004 kPa): 1027.3 ± 0.6 kg/m3 | mass density (313.09 K, 6004 kPa): 1027.8 ± 0.6 kg/m3 | mass density (313.09 K, 6996 kPa): 1028.3 ± 0.6 kg/m3 | mass density (313.09 K, 8006 kPa): 1028.8 ± 0.6 kg/m3 | mass density (313.09 K, 9066 kPa): 1029.4 ± 0.6 kg/m3 | mass density (313.09 K, 10021 kPa): 1029.8 ± 0.6 kg/m3 | mass density (313.09 K, 11008 kPa): 1030.3 ± 0.6 kg/m3 | mass density (313.09 K, 11995 kPa): 1030.8 ± 0.6 kg/m3 | mass density (313.09 K, 13024 kPa): 1031.3 ± 0.7 kg/m3 | mass density (313.09 K, 13984 kPa): 1031.7 ± 0.7 kg/m3 | mass density (313.09 K, 14994 kPa): 1032.2 ± 0.7 kg/m3 | mass density (313.09 K, 15992 kPa): 1032.7 ± 0.7 kg/m3 | mass density (313.09 K, 16977 kPa): 1033.1 ± 0.7 kg/m3 | mass density (313.09 K, 17994 kPa): 1033.6 ± 0.7 kg/m3 | mass density (313.09 K, 19000 kPa): 1034 ± 0.7 kg/m3 | mass density (313.09 K, 19985 kPa): 1034.5 ± 0.7 kg/m3 | mass density (323.01 K, 1003 kPa): 1017.6 ± 0.6 kg/m3 | mass density (323.01 K, 2020 kPa): 1018.2 ± 0.6 kg/m3 | mass density (323.01 K, 3006 kPa): 1018.7 ± 0.6 kg/m3 | mass density (323.01 K, 4031 kPa): 1019.2 ± 0.6 kg/m3 | mass density (323.01 K, 5002 kPa): 1019.7 ± 0.6 kg/m3 | mass density (323.01 K, 6020 kPa): 1020.2 ± 0.6 kg/m3 | mass density (323.01 K, 7003 kPa): 1020.7 ± 0.6 kg/m3 | mass density (323.01 K, 8000 kPa): 1021.2 ± 0.6 kg/m3 | mass density (323.01 K, 9006 kPa): 1021.7 ± 0.6 kg/m3 | mass density (323.01 K, 9991 kPa): 1022.2 ± 0.6 kg/m3 | mass density (323.01 K, 11005 kPa): 1022.7 ± 0.6 kg/m3 | mass density (323.01 K, 12000 kPa): 1023.2 ± 0.6 kg/m3 | mass density (323.01 K, 13010 kPa): 1023.7 ± 0.6 kg/m3 | mass density (323.01 K, 14000 kPa): 1024.2 ± 0.6 kg/m3 | mass density (323.01 K, 14987 kPa): 1024.7 ± 0.6 kg/m3 | mass density (323.01 K, 15987 kPa): 1025.2 ± 0.6 kg/m3 | mass density (323.01 K, 17012 kPa): 1025.6 ± 0.6 kg/m3 | mass density (323.01 K, 17991 kPa): 1026.1 ± 0.7 kg/m3 | mass density (323.01 K, 18995 kPa): 1026.6 ± 0.7 kg/m3 | mass density (323.01 K, 20012 kPa): 1027.1 ± 0.7 kg/m3 | mass density (332.95 K, 1045 kPa): 1009.9 ± 0.6 kg/m3 | mass density (332.95 K, 2032 kPa): 1010.5 ± 0.6 kg/m3 | mass density (332.95 K, 2995 kPa): 1011 ± 0.6 kg/m3 | mass density (332.95 K, 3991 kPa): 1011.6 ± 0.6 kg/m3 | mass density (332.95 K, 4983 kPa): 1012.1 ± 0.6 kg/m3 | mass density (332.95 K, 6016 kPa): 1012.6 ± 0.6 kg/m3 | mass density (332.95 K, 6998 kPa): 1013.2 ± 0.6 kg/m3 | mass density (332.95 K, 8009 kPa): 1013.7 ± 0.6 kg/m3 | mass density (332.95 K, 8993 kPa): 1014.2 ± 0.6 kg/m3 | mass density (332.95 K, 9991 kPa): 1014.7 ± 0.6 kg/m3 | mass density (332.95 K, 10985 kPa): 1015.3 ± 0.6 kg/m3 | mass density (332.95 K, 12014 kPa): 1015.8 ± 0.6 kg/m3 | mass density (332.95 K, 13079 kPa): 1016.3 ± 0.6 kg/m3 | mass density (332.95 K, 13992 kPa): 1016.8 ± 0.6 kg/m3 | mass density (332.95 K, 14999 kPa): 1017.3 ± 0.6 kg/m3 | mass density (332.95 K, 15997 kPa): 1017.8 ± 0.6 kg/m3 | mass density (332.95 K, 16989 kPa): 1018.3 ± 0.6 kg/m3 | mass density (332.95 K, 17997 kPa): 1018.8 ± 0.6 kg/m3 | mass density (332.95 K, 19011 kPa): 1019.3 ± 0.6 kg/m3 | mass density (332.95 K, 19963 kPa): 1019.7 ± 0.6 kg/m3
